Values of other authors, collected in patent publication US20140018438A1, “METHOD OF DESTROYING BACTERIAL BIOFILM USING STERILE INTRAVENOUS OR INTRACAVERNOUS GLYCERIN” (priority 2012, published 2014).

Conditions: sterile product for intravenous administration, generally 3% concentration at 80-100 milliliters per hour

SMILES: OCC(O)CO [Glycerin]
- allergic reactions / safety profile: free of allergic reactions
